Where “and” joins values, the source holds several entries; their conditions need not be identical. Equal entries are not always repeated. Entries after “also recorded” stand apart in the source; their conditions may differ. Where two headings read alike, the source gives them in different places.
What was measured:
hNav1.5 = hNav1.5 (Homo sapiens, UniProt Q14524); assay: cell-based; format: cell-based
hNav1.3 = hNav1.3 (Homo sapiens, UniProt Q9NY46); format: cell-based
hNav1.8 = hNav1.8 (Homo sapiens, UniProt Q9Y5Y9); assay: cell-based; format: cell-based
[1] = test system: TTX-sensitive Nav channels in mouse DRG neuron; format: cell-based
[2] = test system: TTX-resistant Nav channels in mouse DRG neuron; format: cell-based
hNav1.4 = hNav1.4 (Homo sapiens, UniProt P35499); format: cell-based
hNav1.7 [3] = target: T1, hNav1.7 (Homo sapiens, UniProt Q15858); assay: cell-based; format: cell-based
[4] = test system: central neuronal sodium channels in rat hippocampus neurons; conditions: cited from earlier work
male Sprague-Dawley rats [5] = format: in vivo, rat
male CD-1 mice [6] = conditions: for terminal exposure (plasma): 2 h post peptide injection
male CD-1 mice [7] = conditions: mouse, in vivo
in vitro [8] = conditions: monkey, plasma
hNav1.7 [9] = target: T1, hNav1.7; assay: cell-based; format: cell-based; conditions: values quoted in text (average); read-out: hNav1.7 IC50 in the PX format
in vitro [10] = conditions: human, plasma
male Sprague-Dawley rats [11] = conditions: 5.0 mg/kg s.c., 2 h post peptide injection
in vivo = conditions: CD-1, mouse, sc, 1 mg/kg
[12] = human plasma, 37° C., incubation 0 hr
[13] = cyno plasma, 37° C., incubation 0 hr
[14] = 1 mg/kg s.c.
male CD-1 mice [15] = conditions: mouse, in vivo; remark: listed apart in the source
mice = conditions: mouse, in vivo; cited from earlier work
[16] = in vivo; cited from earlier work
[17] = 0.1, 0.3 or 1.0 mg/kg s.c., 1-hour pre-treatment

T1 sequence (Q15858 whole entry): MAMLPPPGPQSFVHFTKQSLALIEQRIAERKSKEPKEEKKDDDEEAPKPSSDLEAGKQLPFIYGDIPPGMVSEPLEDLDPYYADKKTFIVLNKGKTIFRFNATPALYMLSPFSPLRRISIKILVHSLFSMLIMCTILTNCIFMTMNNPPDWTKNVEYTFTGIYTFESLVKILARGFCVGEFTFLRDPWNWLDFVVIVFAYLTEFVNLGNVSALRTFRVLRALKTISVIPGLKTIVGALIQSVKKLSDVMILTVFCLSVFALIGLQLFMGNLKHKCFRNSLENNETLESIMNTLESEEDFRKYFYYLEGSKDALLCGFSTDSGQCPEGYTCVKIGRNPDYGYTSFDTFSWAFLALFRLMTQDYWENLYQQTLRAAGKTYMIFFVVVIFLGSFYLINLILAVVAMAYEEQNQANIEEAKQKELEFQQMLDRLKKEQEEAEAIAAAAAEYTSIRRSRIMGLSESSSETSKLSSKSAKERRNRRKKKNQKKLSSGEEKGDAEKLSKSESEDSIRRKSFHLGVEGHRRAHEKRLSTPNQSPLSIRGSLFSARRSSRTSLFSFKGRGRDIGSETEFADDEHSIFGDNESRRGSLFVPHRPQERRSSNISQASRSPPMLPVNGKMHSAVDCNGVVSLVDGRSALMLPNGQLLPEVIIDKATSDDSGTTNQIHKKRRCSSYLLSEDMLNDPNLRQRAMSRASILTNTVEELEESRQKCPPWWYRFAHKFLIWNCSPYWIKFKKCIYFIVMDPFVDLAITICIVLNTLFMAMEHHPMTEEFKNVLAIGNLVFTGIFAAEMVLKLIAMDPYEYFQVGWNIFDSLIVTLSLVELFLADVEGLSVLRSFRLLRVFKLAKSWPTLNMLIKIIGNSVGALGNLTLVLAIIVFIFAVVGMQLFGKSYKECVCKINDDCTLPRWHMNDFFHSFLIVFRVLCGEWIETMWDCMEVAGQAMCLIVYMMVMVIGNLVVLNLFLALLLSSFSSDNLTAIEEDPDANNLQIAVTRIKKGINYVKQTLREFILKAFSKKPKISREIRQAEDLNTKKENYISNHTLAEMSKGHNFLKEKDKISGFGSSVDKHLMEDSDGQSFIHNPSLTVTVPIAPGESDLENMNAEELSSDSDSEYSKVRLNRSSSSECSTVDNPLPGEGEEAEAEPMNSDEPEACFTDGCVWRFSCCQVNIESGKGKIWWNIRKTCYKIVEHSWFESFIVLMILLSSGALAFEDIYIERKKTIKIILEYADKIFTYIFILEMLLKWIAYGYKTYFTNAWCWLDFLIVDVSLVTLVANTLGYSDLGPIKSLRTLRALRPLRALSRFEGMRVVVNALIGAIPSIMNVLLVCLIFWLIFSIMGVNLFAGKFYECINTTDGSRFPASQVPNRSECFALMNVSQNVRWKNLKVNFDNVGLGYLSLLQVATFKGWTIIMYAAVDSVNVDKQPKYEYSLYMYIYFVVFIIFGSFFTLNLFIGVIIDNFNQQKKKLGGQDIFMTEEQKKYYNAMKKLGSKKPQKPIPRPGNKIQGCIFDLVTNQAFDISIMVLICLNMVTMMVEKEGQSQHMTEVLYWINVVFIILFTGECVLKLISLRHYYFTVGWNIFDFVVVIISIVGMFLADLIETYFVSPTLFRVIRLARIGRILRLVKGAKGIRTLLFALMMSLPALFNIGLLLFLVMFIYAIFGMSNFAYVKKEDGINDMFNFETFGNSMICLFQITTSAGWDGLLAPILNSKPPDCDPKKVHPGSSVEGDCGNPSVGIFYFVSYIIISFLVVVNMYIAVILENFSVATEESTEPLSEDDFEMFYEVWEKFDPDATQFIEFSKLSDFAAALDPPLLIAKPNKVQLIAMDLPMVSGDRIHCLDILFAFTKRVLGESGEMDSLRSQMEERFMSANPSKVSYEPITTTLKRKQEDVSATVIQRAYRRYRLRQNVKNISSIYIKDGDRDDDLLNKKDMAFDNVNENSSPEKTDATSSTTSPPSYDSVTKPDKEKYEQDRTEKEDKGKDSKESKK
hNav1.3, sequence (Q9NY46 whole entry): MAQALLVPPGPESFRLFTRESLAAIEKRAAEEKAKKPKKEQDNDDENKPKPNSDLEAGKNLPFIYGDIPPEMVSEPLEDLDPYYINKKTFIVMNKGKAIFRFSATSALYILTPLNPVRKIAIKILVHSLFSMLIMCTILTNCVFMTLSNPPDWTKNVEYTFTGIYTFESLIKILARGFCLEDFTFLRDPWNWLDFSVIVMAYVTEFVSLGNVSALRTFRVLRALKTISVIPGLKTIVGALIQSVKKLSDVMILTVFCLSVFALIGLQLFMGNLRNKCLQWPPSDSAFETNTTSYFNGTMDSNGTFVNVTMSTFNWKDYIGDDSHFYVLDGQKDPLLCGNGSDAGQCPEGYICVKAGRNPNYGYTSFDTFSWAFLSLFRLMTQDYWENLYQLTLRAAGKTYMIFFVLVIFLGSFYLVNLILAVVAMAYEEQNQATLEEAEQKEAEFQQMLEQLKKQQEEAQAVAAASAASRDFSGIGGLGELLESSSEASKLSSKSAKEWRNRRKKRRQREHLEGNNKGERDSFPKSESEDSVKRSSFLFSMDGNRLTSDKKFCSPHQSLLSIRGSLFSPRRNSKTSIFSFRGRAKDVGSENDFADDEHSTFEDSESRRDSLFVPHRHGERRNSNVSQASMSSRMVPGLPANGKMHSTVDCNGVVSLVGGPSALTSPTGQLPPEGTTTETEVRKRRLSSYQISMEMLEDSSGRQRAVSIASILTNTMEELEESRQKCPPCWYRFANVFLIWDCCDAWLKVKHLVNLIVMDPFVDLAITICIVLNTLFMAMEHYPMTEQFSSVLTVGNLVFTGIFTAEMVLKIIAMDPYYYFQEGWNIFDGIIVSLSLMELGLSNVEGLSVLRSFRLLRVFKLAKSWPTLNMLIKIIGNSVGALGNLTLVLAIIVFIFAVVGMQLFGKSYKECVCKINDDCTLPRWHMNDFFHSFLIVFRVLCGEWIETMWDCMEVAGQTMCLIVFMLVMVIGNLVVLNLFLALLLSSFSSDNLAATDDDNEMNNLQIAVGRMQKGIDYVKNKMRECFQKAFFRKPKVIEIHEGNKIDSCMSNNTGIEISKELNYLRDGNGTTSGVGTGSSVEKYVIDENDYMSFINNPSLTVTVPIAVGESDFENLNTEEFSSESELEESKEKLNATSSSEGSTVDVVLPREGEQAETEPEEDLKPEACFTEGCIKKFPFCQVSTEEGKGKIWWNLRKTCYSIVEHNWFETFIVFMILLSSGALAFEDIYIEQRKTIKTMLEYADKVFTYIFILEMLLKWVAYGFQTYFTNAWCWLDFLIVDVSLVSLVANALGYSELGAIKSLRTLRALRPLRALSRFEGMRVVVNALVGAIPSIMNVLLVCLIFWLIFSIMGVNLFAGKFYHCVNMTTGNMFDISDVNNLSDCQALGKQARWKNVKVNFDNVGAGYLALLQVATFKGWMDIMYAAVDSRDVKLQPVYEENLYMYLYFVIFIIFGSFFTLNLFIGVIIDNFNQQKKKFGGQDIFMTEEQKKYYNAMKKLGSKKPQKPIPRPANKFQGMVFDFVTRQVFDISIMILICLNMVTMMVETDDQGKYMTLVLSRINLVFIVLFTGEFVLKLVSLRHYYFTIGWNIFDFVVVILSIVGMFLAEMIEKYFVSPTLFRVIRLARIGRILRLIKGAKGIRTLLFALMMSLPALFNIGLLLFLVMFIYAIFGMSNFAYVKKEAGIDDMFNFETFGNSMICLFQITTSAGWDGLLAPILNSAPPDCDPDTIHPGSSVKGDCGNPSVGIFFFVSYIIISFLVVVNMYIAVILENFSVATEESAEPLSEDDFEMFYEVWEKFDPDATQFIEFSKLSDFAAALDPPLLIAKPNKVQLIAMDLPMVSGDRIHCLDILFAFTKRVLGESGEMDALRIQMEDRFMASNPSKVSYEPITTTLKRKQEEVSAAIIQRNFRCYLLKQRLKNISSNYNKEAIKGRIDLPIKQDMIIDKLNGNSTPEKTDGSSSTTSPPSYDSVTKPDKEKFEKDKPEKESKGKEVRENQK

## CC[C@H](C)[C@H](NC(=O)[C@@H](NC(=O)[C@H](CCCCN)NC(=O)[C@H](CCCNC(=N)N)NC(=O)[C@@H]1CSSC[C@@H]2NC(=O)[C@H](C)NC(=O)[C@H](CCCNC(=N)N)NC(=O)[C@H](CCCCN)NC(=O)[C@H](CO)NC(=O)[C@H](CC(=O)O)NC(=O)[C@@H]3CSSC[C@H](NC(=O)[C@H](CCCNC(=N)N)NC(=O)[C@H](CC(C)C)NC(=O)CNC(=O)[C@H](CCC(=O)O)NC(=O)[C@H](CSSC[C@H](NC(=O)[C@@H](N)Cc4ccc(O)cc4)C(=O)N[C@@H](CCC(N)=O)C(=O)N[C@@H](CCCCN)C(=O)N[C@@H](Cc4c[nH]c5ccccc45)C(=O)N[C@@H](CCSC)C(=O)N[C@@H](Cc4c[nH]c5ccccc45)C(=O)N[C@@H]([C@@H](C)O)C(=O)N3)NC2=O)C(=O)N[C@@H](CCCCN)C(=O)N[C@@H](CC(C)C)C(=O)N[C@@H](Cc2c[nH]c3ccccc23)C(=O)N1)[C@@H](C)CC)C(N)=O [SEQ ID NO: 2, JzTx-V(1-29), reference compound]
hNav1.5
  block of hNav1.5 current: blocked most Nav1.5 current; also recorded: nearly complete inhibition
hNav1.3
  block of hNav1.3 current: completely blocked Nav1.3 current; also recorded: complete inhibition
hNav1.8
  inhibition of hNav1.8 current: only partial inhibition
[1]
  block of TTX-sensitive Nav current: completely blocked TTX-sensitive Nav current; also recorded: blocked nearly all TTX-sensitive Nav current; also recorded: almost complete inhibition
[2]
  effect on TTX-resistant Nav current: nominal effect on peak TTX-resistant current but prolonged the level of TTX-resistant current at 40 msec; also recorded: only partial inhibition
hNav1.4
  block of hNav1.4 current: completely blocked Nav1.4 current; also recorded: complete inhibition
hNav1.7 [3]
  block of hNav1.7 current: blocked all Nav1.7 current
  inhibition of hNav1.7 current: complete inhibition

## Huwentoxin-IV [SEQ ID NO: 528]
[4]
  less potent against central neuronal sodium channels: 12 fold

## CC[C@H](C)[C@H](NC(=O)[C@H](CCCCN)NC(=O)[C@H](CCCNC(=N)N)NC(=O)[C@@H]1CSSC[C@@H]2NC(=O)[C@H](C)NC(=O)[C@H](CCCNC(=N)N)NC(=O)[C@H](CCCCN)NC(=O)[C@H](CO)NC(=O)[C@H](CC(=O)O)NC(=O)[C@@H]3CSSC[C@H](NC(=O)[C@H](CCC(=O)O)NC(=O)[C@H](CC(C)C)NC(=O)CNC(=O)[C@H](CCC(=O)O)NC(=O)[C@H](CSSC[C@H](NC(=O)[C@@H](N)Cc4ccc(O)cc4)C(=O)N[C@@H](CCC(N)=O)C(=O)N[C@@H](CCCCN)C(=O)N[C@@H](Cc4c[nH]c5ccccc45)C(=O)N[C@@H](CCSC)C(=O)N[C@@H](Cc4c[nH]c5ccccc45)C(=O)N[C@@H]([C@@H](C)O)C(=O)N3)NC2=O)C(=O)N[C@@H](CCCCN)C(=O)N[C@@H](CC(C)C)C(=O)N[C@@H](Cc2c[nH]c3ccccc23)C(=O)N1)C(=O)N[C@@H](Cc1c[nH]c2ccccc12)C(N)=O [SEQ ID NO: 112, [Glu20;Trp29]JzTx-V(1-29)]
Male Sprague-Dawley rats [5]; peptide 5.0 mg/kg s.c. 1-h pre-treatment, vs vehicle (PBS)
  formalin response, first or acute phase (0-5 min): no effect
Male Sprague-Dawley rats [5]; rat, in vivo
  formalin response, second phase (5-40 min): did not decrease and may have actually increased; also recorded: may have actually increased the pain response
Male CD-1 mice [6]; 0.1 mg/kg s.c.
  terminal exposure (plasma): 0.0248 ± 0.00668 µM
Male CD-1 mice [6]; 0.3 mg/kg s.c.
  terminal exposure (plasma): 0.121 ± 0.0296 µM
Male CD-1 mice [6]; 1.0 mg/kg s.c.
  terminal exposure (plasma): 0.419 ± 0.226 µM
Male CD-1 mice [6]; 5.0 mg/kg s.c.
  terminal exposure (plasma): 4.73 ± 0.584 µM
Male CD-1 mice [6]; [17]
  total fine movement: no effect
  total time rearing: no effect
[1]
  block of TTX-sensitive Nav current: only blocked around half of TTX-sensitive Nav current; also recorded: only partially blocked TTX-sensitive Nav current; also recorded: only partial inhibition
[1]; TTX-sensitive current, mouse DRG neurons
  loss in potency relative to the human clone of Nav1.7: ~1000 fold
Male CD-1 mice [7]
  time spent lifting and/or licking the affected paw, first phase (0-5 min): no effect and Neither the peptide nor the morphine positive control significantly reduced and 1 mg/kg dose of peptide may have slightly increased the pain response
  time spent lifting and/or licking the affected paw, second phase (5-40 min): no effect; also recorded: but not the peptide significantly reduced
In vitro [8]
  remaining at 2 h: 93%
  remaining at 4 h: 91%
  remaining at 6 h: 90%
  remaining at 8 h: 91%
  remaining at 24 h: 89%
hNav1.7 [9]
  IC50: 1.5 nM
In vitro [10]
  remaining at 2 h: 95%
  remaining at 4 h: 84%
  remaining at 6 h: 75%
  remaining at 8 h: 71%
  remaining at 24 h: 48%
Male Sprague-Dawley rats [11]
  terminal exposure (plasma): 0.994 ± 0.184 µM
In vivo
  half-life: ~2.08 h
[12]
  % Peptide Remaining: 100%
[13]
  % Peptide Remaining: 100%
[14]; CD-1 mice
  plasma concentration over the in vitro hNav1.7 IC50 by PX: 26 fold
[14]; mice
  time with measurable plasma concentrations: 4 h
  tolerability: tolerated
Male CD-1 mice [15]
  thermal latency / thermal hyperalgesia: no effect

## μ-Conotoxin KIIIA [SEQ ID NO: 530]
mice
  motor impairment: some motor impairment but not paralytic activity

## YCQKWMWTCDSERKCCEGMVCRLWCKKKLW [SEQ ID NO: 531, ProTx-II]
[16]
  efficacy in mechanical hyperalgesia study: not efficacious
